In ChEMBL document CHEMBL4808217, “Design, Synthesis, and Characterization of 4-Aminoquinazolines as Potent Inhibitors of the G Protein-Coupled Receptor Kinase 6 (GRK6) for the Treatment of Multiple Myeloma” (J Med Chem, 2021):

What was measured:
[1] = target: T1, G protein-coupled receptor kinase 6 (Homo sapiens, UniProt P43250); assay: Inhibition of recombinant full-length human GRK6 using casein as substrate measured after 80 mins in presence of [gamma33P]ATP by radiometric scintillation counting method
T1 sequence (P43250 whole entry): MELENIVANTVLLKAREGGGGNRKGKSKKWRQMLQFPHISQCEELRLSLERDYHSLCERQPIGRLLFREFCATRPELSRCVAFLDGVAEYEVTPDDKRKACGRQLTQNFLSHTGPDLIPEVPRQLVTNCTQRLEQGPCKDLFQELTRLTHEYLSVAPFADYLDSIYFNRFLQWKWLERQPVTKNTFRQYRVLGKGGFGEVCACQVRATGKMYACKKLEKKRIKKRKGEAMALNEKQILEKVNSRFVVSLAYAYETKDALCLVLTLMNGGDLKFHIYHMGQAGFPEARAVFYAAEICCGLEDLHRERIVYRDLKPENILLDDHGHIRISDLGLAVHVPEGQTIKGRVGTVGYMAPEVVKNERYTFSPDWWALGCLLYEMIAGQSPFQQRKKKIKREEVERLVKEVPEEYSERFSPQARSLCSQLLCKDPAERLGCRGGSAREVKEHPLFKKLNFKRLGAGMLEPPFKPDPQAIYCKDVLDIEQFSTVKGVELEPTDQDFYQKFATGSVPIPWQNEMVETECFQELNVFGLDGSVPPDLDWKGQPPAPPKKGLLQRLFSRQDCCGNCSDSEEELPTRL

Aurora kinase A = target: T2, Aurora kinase A (Homo sapiens, UniProt O14965); assay: Inhibition of recombinant full length human Aurora A using LRRASLG as substrate incubated for 40 mins in presence of [gamma-33ATP] by radiometric scintillation counting method
T2 sequence (O14965 whole entry): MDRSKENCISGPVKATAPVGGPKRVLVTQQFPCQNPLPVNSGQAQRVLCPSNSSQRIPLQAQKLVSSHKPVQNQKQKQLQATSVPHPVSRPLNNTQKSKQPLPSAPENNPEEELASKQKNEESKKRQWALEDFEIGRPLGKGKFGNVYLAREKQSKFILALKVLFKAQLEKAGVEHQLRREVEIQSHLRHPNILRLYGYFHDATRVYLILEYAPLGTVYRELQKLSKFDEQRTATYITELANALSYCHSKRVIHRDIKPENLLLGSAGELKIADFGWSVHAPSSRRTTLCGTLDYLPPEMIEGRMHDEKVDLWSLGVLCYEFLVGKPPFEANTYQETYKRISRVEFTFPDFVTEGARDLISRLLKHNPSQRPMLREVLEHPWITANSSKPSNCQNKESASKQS

[2] = target: Insulin-like growth factor 1 receptor (Homo sapiens, UniProt P08069); assay: Inhibition of recombinant human IGF-1R (959 to end residues) using KKKSPGEYVNIEF as substrate incubated for 40 mins in presence of [gamma-33ATP] by radiometric scintillation counting method
Chain of Insulin-like growth factor 1 receptor (P08069 31-736 limits assumed): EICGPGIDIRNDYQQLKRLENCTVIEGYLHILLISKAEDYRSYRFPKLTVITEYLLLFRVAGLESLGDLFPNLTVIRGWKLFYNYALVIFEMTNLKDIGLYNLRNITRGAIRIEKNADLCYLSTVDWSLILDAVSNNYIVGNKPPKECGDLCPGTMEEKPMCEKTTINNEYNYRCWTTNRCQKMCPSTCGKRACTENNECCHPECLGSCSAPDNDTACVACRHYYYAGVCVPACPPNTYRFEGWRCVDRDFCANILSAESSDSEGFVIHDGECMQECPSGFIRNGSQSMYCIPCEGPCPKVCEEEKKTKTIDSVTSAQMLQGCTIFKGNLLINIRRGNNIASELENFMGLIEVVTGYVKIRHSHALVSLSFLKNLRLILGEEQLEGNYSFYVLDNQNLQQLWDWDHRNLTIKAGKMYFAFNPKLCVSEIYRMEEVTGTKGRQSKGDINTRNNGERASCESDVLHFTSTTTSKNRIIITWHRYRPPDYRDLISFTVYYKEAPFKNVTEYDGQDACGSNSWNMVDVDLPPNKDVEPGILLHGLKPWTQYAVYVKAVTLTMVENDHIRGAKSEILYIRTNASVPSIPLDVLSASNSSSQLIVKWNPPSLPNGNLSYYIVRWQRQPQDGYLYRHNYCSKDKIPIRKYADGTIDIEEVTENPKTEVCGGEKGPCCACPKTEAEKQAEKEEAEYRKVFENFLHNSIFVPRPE
Chain of Insulin-like growth factor 1 receptor (P08069 741-1367 limits assumed): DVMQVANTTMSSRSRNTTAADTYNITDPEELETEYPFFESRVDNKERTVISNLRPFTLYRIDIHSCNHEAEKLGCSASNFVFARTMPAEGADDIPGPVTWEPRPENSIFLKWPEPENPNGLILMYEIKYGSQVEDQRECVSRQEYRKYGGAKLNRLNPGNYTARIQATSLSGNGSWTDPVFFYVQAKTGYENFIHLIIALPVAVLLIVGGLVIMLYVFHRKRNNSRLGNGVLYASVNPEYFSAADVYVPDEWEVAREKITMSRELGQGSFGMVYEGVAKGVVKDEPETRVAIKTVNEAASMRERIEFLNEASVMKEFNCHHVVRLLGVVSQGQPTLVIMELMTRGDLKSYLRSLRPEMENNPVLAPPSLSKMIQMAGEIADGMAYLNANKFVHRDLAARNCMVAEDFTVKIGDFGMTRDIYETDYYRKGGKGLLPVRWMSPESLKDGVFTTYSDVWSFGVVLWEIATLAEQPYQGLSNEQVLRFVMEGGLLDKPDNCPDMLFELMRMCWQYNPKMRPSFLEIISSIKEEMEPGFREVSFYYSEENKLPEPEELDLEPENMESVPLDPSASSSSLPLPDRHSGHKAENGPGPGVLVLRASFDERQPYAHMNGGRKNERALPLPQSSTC

[3] = target: T1, G protein-coupled receptor kinase 6; assay: Binding affinity to FLAG-tagged GRK6 in human KMS11 cells incubated for […] by ITDR assay; format: cell-based, KMS-11

SMILES | IC50 [1] [µM] | IC50 (Aurora kinase A) [µM] | IC50 [2] [µM] | IC50 [3] [µM]
CCc1cc(Nc2nc(N[C@@H](C)c3ccc(C#N)cn3)nc3cccc(F)c23)n[nH]1 | 0.091 | 0.22 | – | –
CCc1cc(Nc2nc(NCc3ccc(Cl)cc3)nc3cccc(C)c23)n[nH]1 | 0.027 | 1.2 | > 10 | –
CCc1cc(Nc2nc(N[C@@H](C)c3ncc(F)cn3)nc3cccc(F)c23)n[nH]1 | 0.23 | 0.08 | – | –
CCc1cc(Nc2nc(NCc3ccc(Cl)cc3)nc3cccc(OC)c23)n[nH]1 | 0.016 | > 10 | > 10 | 2
CCc1cc(Nc2nc(NCCc3ccc(F)cc3)nc3cccc(F)c23)n[nH]1 | 0.11 | 0.18 | – | –
CCc1cc(Nc2nc(N[C@@H](C)c3ccc(Cl)cn3)nc3cccc(OC)c23)n[nH]1 | 0.0035 | 22 | – | –
CCc1cc(Nc2nc(NCCc3ccc(F)cc3)nc3ccccc23)n[nH]1 | 0.19 | 0.041 | – | –
CCc1cc(Nc2nc(NCc3ccc(Cl)cc3OC)nc3cccc(C)c23)n[nH]1 | 0.006 | 1.2 | – | 0.17
CCc1cc(Nc2nc(NCc3ccc(Cl)cc3OC)nc3ccccc23)n[nH]1 | 0.04 | – | – | –
CCc1cc(Nc2nc(N[C@@H](C)c3ccc(F)cn3)nc3cccc(F)c23)n[nH]1 | 0.029 | 0.025 | – | –
CCc1cc(Nc2nc(N[C@@H](C)c3ccc(F)cc3)nc3ccccc23)n[nH]1 | 0.12 | 0.011 | – | –
CCc1cc(Nc2nc(NCCc3ccccc3)nc3cccc(OC)c23)n[nH]1 | 0.01 | > 10 | > 10 | –
Fc1cccc2nc(NCCc3ccccc3)nc(Nc3ccon3)c12 | > 10 | – | – | –
CCc1cc(Nc2nc(N[C@@H](C)c3cccc(F)c3)nc3ccccc23)n[nH]1 | 0.34 | – | – | –
CCc1cc(Nc2nc(N[C@@H](C)c3ccc(F)cc3)nc3cccc(F)c23)n[nH]1 | 0.041 | 0.051 | – | –
CCc1cc(Nc2nc(NCCN3CCOCC3)nc3cccc(F)c23)n[nH]1 | 1.4 | – | – | –
Fc1cccc2nc(NCCc3ccccc3)nc(Nc3cc[nH]n3)c12 | 2.5 | – | – | –
CCc1cc(Nc2nc(NCCc3ccccc3)nc3cccc(F)c23)n[nH]1 | 0.02 | – | – | –

SMILES | IC50 [1] [µM] | IC50 (Aurora kinase A) [µM] | IC50 [2] [µM] | IC50 [3] [µM]
CCc1cc(Nc2nc(NCCc3ccc(F)cc3)nc3cc(F)ccc23)n[nH]1 | 0.18 | – | – | –
CCc1cc(Nc2nc(NCCc3ccc(F)cc3)nc3ccc(F)cc23)n[nH]1 | 0.31 | – | – | –
CCn1cnc(Nc2nc(N[C@@H](C)c3ccc(F)cn3)nc3cccc(F)c23)c1 | 0.28 | – | – | –
CCc1cc(Nc2nc(N[C@@H](C)c3ccc(C)cc3)nc3cccc(F)c23)n[nH]1 | 0.027 | 0.075 | – | –
CCc1cc(Nc2nc(N[C@@H](C)c3ccc(OC)cc3)nc3ccccc23)n[nH]1 | 0.29 | – | – | –
CCc1cc(Nc2nc(NCc3ccc(F)cc3)nc3ccccc23)n[nH]1 | 0.25 | – | – | –
CCc1cc(Nc2nc(NCCc3ccc(F)cc3)nc3ccc(OC)cc23)n[nH]1 | 0.46 | – | – | –
CCc1cc(Nc2nc(NC3(c4ccc(Cl)cc4)CC3)nc3ccccc23)n[nH]1 | 0.28 | – | – | –
CCOc1ccc(Nc2nc(N[C@@H](C)c3ccc(F)cn3)nc3cccc(F)c23)cn1 | > 10 | – | – | –
CCc1cc(Nc2nc(NCCc3ccc(F)cc3)nc3cc(Cl)ccc23)n[nH]1 | 1.1 | – | – | –
CCc1cc(Nc2nc(N[C@@H](C)c3ccc(F)cc3)nc3cc(Cl)ccc23)n[nH]1 | 0.44 | – | – | –
CCc1cc(Nc2nc(N[C@@H](C)c3ccc(Cl)cc3)nc3ccccc23)n[nH]1 | 0.07 | – | – | –
CCc1cc(Nc2nc(N[C@@H](C)c3ccc(F)cc3)nc3ccc(F)cc23)n[nH]1 | 0.16 | – | – | –
CCc1cc(Nc2nc(N[C@@H](C)c3ccc(F)cc3)nc3ccc(OC)cc23)n[nH]1 | 0.14 | – | – | –
CCc1cc(Nc2nc(N[C@@H](C)C3CCCCC3)nc3ccccc23)n[nH]1 | 0.96 | – | – | –
CCc1cc(Nc2nc(N[C@@H](C)c3ccc(F)cn3)nc3cccc(C)c23)n[nH]1 | 0.011 | 0.33 | – | 0.61
CCc1cc(Nc2nc(N[C@H](C)c3ccc(F)cc3)nc3ccccc23)n[nH]1 | 1.4 | – | – | –
CCc1cc(Nc2nc(N[C@@H](C)c3ccc(F)cc3)nc3cc(F)ccc23)n[nH]1 | 0.1 | – | – | –
